Measured values as given in ChEMBL document CHEMBL3994623, “The synthesis and antistaphylococcal activity of 9, 13-disubstituted berberine derivatives” (Eur J Med Chem, 2017).
≈ marks a conversion by molar mass, not a printed value.

Tests used:
Staphylococcus aureus [1] = test: Antistaphylococcal activity against Staphylococcus aureus Newman after 18 hrs by two fold serial dilution method; type: functional
Staphylococcus aureus [2] = test: Antistaphylococcal activity against gentamicin-resistant Staphylococcus aureus NRS-108 after 18 hrs by two fold serial dilution method; type: functional; settings: NRS-108, 18 h
Staphylococcus aureus [3] = test: Antistaphylococcal activity against linezolid-resistant Staphylococcus aureus NRS-271 containing phage type E-MRSA after 18 hrs by two fold serial dilution method; type: functional; settings: NRS-271, 18 h
[4] = Cytotoxicity against HAF assessed as decrease in cell viability after 24 hrs by MTS assay; type: cell-based; settings: Homo sapiens
Staphylococcus aureus [5] = test: Antistaphylococcal activity against oxacillin/tetracycline-resistant Staphylococcus aureus NRS-100 after 18 hrs by two fold serial dilution method; type: functional; settings: NRS-100, 18 h
Staphylococcus aureus [6] = test: Antistaphylococcal activity against erythromycin-resistant Staphylococcus aureus NRS-70 after 18 hrs by two fold serial dilution method; type: functional; settings: NRS-70, 18 h
Staphylococcus aureus [7] = test: Antistaphylococcal activity against aminoglycosides/tetracycline-resistant Staphylococcus aureus NRS-1 after 18 hrs by two fold serial dilution method; type: functional; settings: NRS-1, 18 h
Staphylococcus aureus [8] = test: Potency index, ratio of totarol MIC to test compound MIC for aminoglycosides/tetracycline-resistant Staphylococcus aureus NRS-1; type: functional
Staphylococcus aureus [9] = test: Potency index, ratio of totarol MIC to test compound MIC for erythromycin-resistant Staphylococcus aureus NRS-70; type: functional
Staphylococcus aureus [10] = test: Potency index, ratio of totarol MIC to test compound MIC for linezolid-resistant Staphylococcus aureus NRS-271 containing phage type E-MRSA; type: functional
Staphylococcus aureus [11] = test: Potency index, ratio of totarol MIC to test compound MIC for gentamicin-resistant Staphylococcus aureus NRS-108
[12] = Cytotoxicity against HAF assessed as effect on cell morphology at […] ug/ml after 24 hrs by hematoxylin-eosin staining-based contrast microscopic method; settings: human
Staphylococcus aureus [13] = test: Potency index, ratio of totarol MIC to test compound MIC for oxacillin/tetracycline-resistant Staphylococcus aureus NRS-100; type: functional
[14] = Cytotoxicity against HAF assessed as effect on cell morphology at 12.5 ug/ml after 24 hrs by hematoxylin-eosin staining-based contrast microscopic method; settings: human

Compound | MIC (Staphylococcus aureus [1]) | MIC (Staphylococcus aureus [2]) | MIC (Staphylococcus aureus [3]) | IC50 [4] | MIC (Staphylococcus aureus [5]) | MIC (Staphylococcus aureus [6]) | MIC (Staphylococcus aureus [7]) | further results
CCCCCNc1c(OC)ccc2c(Cc3ccccn3)c3[n+](cc12)CCc1cc2c(cc1-3)OCO2.[Br-] | 12.5 mg/L |  |  |  |  |  |  | 
COc1ccc2c(Cc3ccc(C)cc3)c3[n+](cc2c1OC)CCc1cc2c(cc1-3)OCO2.[Br-] | 6.25 mg/L |  |  |  |  |  |  | 
CCCCCNc1c(OC)ccc2c(Cc3ccc(C)c(C)c3)c3[n+](cc12)CCc1cc2c(cc1-3)OCO2.[Br-] | 1.25 mg/L | 1.56 mg/L | 1.56 mg/L | 12.5 mg/L | 1.56 mg/L | 1.56 mg/L | 3.13 mg/L | 
CCCCNc1c(OC)ccc2c(Cc3ccc(F)cc3)c3[n+](cc12)CCc1cc2c(cc1-3)OCO2.[Br-] | 2.5 mg/L | 3.13 mg/L | 3.13 mg/L |  | 6.25 mg/L | 3.13 mg/L | 6.25 mg/L | 
CCCCCNc1c(OC)ccc2c(Cc3ccc(C(F)(F)F)cc3)c3[n+](cc12)CCc1cc2c(cc1-3)OCO2.[Br-] | 1.25 mg/L | 1.56 mg/L | 1.56 mg/L | 11.4 mg/L | 1.56 mg/L | 1.56 mg/L | 1.56 mg/L | Ratio (Staphylococcus aureus [8]): 1 - 4; Ratio (Staphylococcus aureus [9]): 1 - 4; Ratio (Staphylococcus aureus [10]): 1 - 4; Ratio (Staphylococcus aureus [11]): 1 - 4; Activity [12]: Non-Toxic; Ratio (Staphylococcus aureus [13]): 1 - 4; Activity [14]: Toxic
CCCCCCNc1c(OC)ccc2c(Cc3ccc(C)cc3)c3[n+](cc12)CCc1cc2c(cc1-3)OCO2.[Br-] | 1.56 mg/L | 1.56 mg/L | 1.56 mg/L | 12.8 mg/L | 1.56 mg/L | 1.56 mg/L | 1.56 mg/L | Ratio (Staphylococcus aureus [8]): 1 - 4; Ratio (Staphylococcus aureus [9]): 1 - 4; Ratio (Staphylococcus aureus [10]): 1 - 4; Ratio (Staphylococcus aureus [11]): 1 - 4; Activity [12]: Non-Toxic; Ratio (Staphylococcus aureus [13]): 1 - 4; Activity [14]: Toxic
COc1ccc2c(Cc3ccc(C)cc3)c3[n+](cc2c1NCCCc1ccccc1)CCc1cc2c(cc1-3)OCO2.[Br-] | 3.13 mg/L |  |  |  |  |  |  | 
CCCCNc1c(OC)ccc2c(Cc3ccc(C)cc3)c3[n+](cc12)CCc1cc2c(cc1-3)OCO2.[Br-] | 1.56 mg/L | 3.13 mg/L | 1.56 mg/L |  | 1.56 mg/L | 1.56 mg/L | 1.56 mg/L | 
CCCCNc1c(OC)ccc2c(Cc3ccc(OC)cc3)c3[n+](cc12)CCc1cc2c(cc1-3)OCO2.[Br-] | 2.5 mg/L | 3.13 mg/L | 6.25 mg/L |  | 6.25 mg/L | 3.13 mg/L | 6.25 mg/L | 
CCCCCNc1c(OC)ccc2c(CCCN3CCOCC3)c3[n+](cc12)CCc1cc2c(cc1-3)OCO2.[I-] | > 25 mg/L |  |  |  |  |  |  | 
CCCCCNc1c(OC)ccc2c(CC(=O)OCC)c3[n+](cc12)CCc1cc2c(cc1-3)OCO2.[Br-] | 12.5 mg/L |  |  |  |  |  |  | 
CCCCCNc1c(OC)ccc2c(Cc3ccc(C)cc3)c3[n+](cc12)CCc1cc2c(cc1-3)OCO2.[Br-] | 0.78 mg/L | 1.56 mg/L | 1.56 mg/L | 12.5 mg/L | 0.78 mg/L | 1.56 mg/L | 1.56 mg/L | Ratio (Staphylococcus aureus [8]): 1 - 4; Ratio (Staphylococcus aureus [9]): 1 - 4; Ratio (Staphylococcus aureus [10]): 1 - 4; Ratio (Staphylococcus aureus [11]): 1 - 4; Activity [12]: Non-Toxic; Ratio (Staphylococcus aureus [13]): 1 - 4; Activity [14]: Toxic
CCCCCNc1c(OC)ccc2c(Cc3ccc(OC)cc3)c3[n+](cc12)CCc1cc2c(cc1-3)OCO2.[Br-] | 1.25 mg/L | 1.56 mg/L | 1.56 mg/L | 13.8 mg/L | 3.13 mg/L | 1.56 mg/L | 1.56 mg/L | 
CCCCCNc1c(OC)ccc2c(Cc3cccs3)c3[n+](cc12)CCc1cc2c(cc1-3)OCO2.[Br-] | 3.13 mg/L |  |  |  |  |  |  | 
CCCCCNc1c(OC)ccc2c(Cc3ccc(O)cc3)c3[n+](cc12)CCc1cc2c(cc1-3)OCO2.[Br-] | 2.5 mg/L | 3.13 mg/L | 3.13 mg/L | > 20 mg/L | 3.13 mg/L | 1.56 mg/L | 6.25 mg/L | Activity [12]: Non-Toxic; Activity [14]: Toxic
CCCCCNc1c(OC)ccc2cc3[n+](cc12)CCc1cc2c(cc1-3)OCO2.[Cl-] | 3.13 mg/L |  |  |  |  |  |  | 

Compound | MIC (Staphylococcus aureus [1]) | MIC (Staphylococcus aureus [2]) | MIC (Staphylococcus aureus [3]) | IC50 [4] | MIC (Staphylococcus aureus [5]) | MIC (Staphylococcus aureus [6]) | MIC (Staphylococcus aureus [7]) | further results
CCCCNc1c(OC)ccc2c(Cc3ccccc3)c3[n+](cc12)CCc1cc2c(cc1-3)OCO2.[Br-] | 3.13 mg/L |  |  | > 20 mg/L |  |  |  | 
CCCCCCNc1c(OC)ccc2c(Cc3ccccc3)c3[n+](cc12)CCc1cc2c(cc1-3)OCO2.[Br-] | 2.5 mg/L | 3.13 mg/L | 3.13 mg/L |  | 3.13 mg/L | 1.56 mg/L | 1.56 mg/L | 
CCCCCNc1c(OC)ccc2c(Cc3cccc(C)c3)c3[n+](cc12)CCc1cc2c(cc1-3)OCO2.[Br-] | 1.25 mg/L | 1.56 mg/L | 1.56 mg/L | 12.7 mg/L | 3.13 mg/L | 1.56 mg/L | 3.13 mg/L | 
CCCCCCNc1c(OC)ccc2c(Cc3ccc(F)cc3)c3[n+](cc12)CCc1cc2c(cc1-3)OCO2.[Br-] | 1.56 mg/L | 3.13 mg/L | 3.13 mg/L |  | 6.25 mg/L | 3.13 mg/L | 3.13 mg/L | 
CCCCCNc1c(OC)ccc2c(CCCN3CCCC3)c3[n+](cc12)CCc1cc2c(cc1-3)OCO2.[I-] | > 25 mg/L |  |  |  |  |  |  | 
CCCCCNc1c(OC)ccc2c(Cc3ccc(F)cc3)c3[n+](cc12)CCc1cc2c(cc1-3)OCO2.[Br-] | 1.25 mg/L | 1.56 mg/L | 1.56 mg/L | 12.7 mg/L | 3.13 mg/L | 1.56 mg/L | 3.13 mg/L | 
CCCCCNc1c(OC)ccc2c(CC(=O)O)c3[n+](cc12)CCc1cc2c(cc1-3)OCO2.[Br-] | 25 mg/L |  |  |  |  |  |  | 
COc1ccc2c(Cc3ccc(C)cc3)c3[n+](cc2c1NCCCO)CCc1cc2c(cc1-3)OCO2.[Br-] | 6.25 mg/L |  |  |  |  |  |  | 
CCCCCCNc1c(OC)ccc2c(Cc3ccc(OC)cc3)c3[n+](cc12)CCc1cc2c(cc1-3)OCO2.[Br-] | 2.5 mg/L | 3.13 mg/L | 6.25 mg/L |  | 3.13 mg/L | 3.13 mg/L | 6.25 mg/L | 
CCCCCNc1c(OC)ccc2c(CCCN3CCCCC3)c3[n+](cc12)CCc1cc2c(cc1-3)OCO2.[I-] | > 25 mg/L |  |  |  |  |  |  | 
CCCCCNc1c(OC)ccc2c(Cc3ccccc3)c3[n+](cc12)CCc1cc2c(cc1-3)OCO2.[Br-] | 1.56 mg/L | 1.56 mg/L | 1.56 mg/L | 15.8 mg/L | 1.56 mg/L | 1.56 mg/L | 3.13 mg/L | 
CCCCCNc1c(OC)ccc2c(Cc3ccccc3C)c3[n+](cc12)CCc1cc2c(cc1-3)OCO2.[Br-] | 1.25 mg/L | 1.56 mg/L | 3.13 mg/L | 13 mg/L | 3.13 mg/L | 1.56 mg/L | 3.13 mg/L | 
COc1ccc2c(Cc3ccccc3)c3[n+](cc2c1OC)CCc1cc2c(cc1-3)OCO2.[Br-] | 6.25 mg/L |  |  |  |  |  |  | 
COc1ccc2cc3[n+](cc2c1OC)CCc1cc2c(cc1-3)OCO2 [BERBERINE] | > 25 mg/L |  |  |  |  |  |  | 
CN[C@H](CC(C)C)C(=O)N[C@H]1C(=O)N[C@@H](CC(N)=O)C(=O)N[C@H]2C(=O)N[C@H]3C(=O)N[C@H](C(=O)N[C@H](C(=O)O)c4cc(O)cc(O)c4-c4cc3ccc4O)[C@H](O)c3ccc(c(Cl)c3)Oc3cc2cc(c3O[C@@H]2O[C@H](CO)[C@@H](O)[C@H](O)[C@H]2O[C@H]2C[C@](C)(N)[C@H](O)[C@H](C)O2)Oc2ccc(cc2Cl)[C@H]1O [VANCOMYCIN] | 0.78 mg/L (≈ 0.538 µM) | 0.39 mg/L (≈ 0.269 µM) | 0.39 mg/L (≈ 0.269 µM) |  | 0.78 mg/L (≈ 0.538 µM) | 0.39 mg/L (≈ 0.269 µM) | 1.56 mg/L (≈ 1.08 µM) | 
